According to patent US6737383B1, “Herbicidal oxadiazolidines” (priority 1999, dated 2004):

Assays:
[1] = tested on: crabgrass; experiment: Test B pre/postemergence crabgrass; format: in vivo, Digitaria sanguinalis
Procedure, shortened: (§1)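 Response is a visual 0-to-10 score relative to untreated plants, where 0 means no effect and 10 means complete control, taken twelve to sixteen days after application. Treatments went onto soil at planting and onto foliage of 1- to 4-leaf plants, using a surfactant-containing non-phytotoxic solvent.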

[2] = tested on: pigweed; experiment: Test B pre/postemergence pigweed; format: in vivo, Amaranthus retroflexus
Procedure, shortened: as §1

[3] = tested on: sugar beet; experiment: Test B pre/postemergence sugar beet; format: in vivo, Beta vulgaris
Procedure, shortened: as §1

[4] = tested on: wild oat; experiment: Test B pre/postemergence wild oat; format: in vivo, Avena fatua
Procedure, shortened: as §1

[5] = tested on: cocklebur; experiment: Test B pre/postemergence cocklebur; format: in vivo, Xanthium strumarium
Procedure, shortened: as §1

[6] = tested on: surinam grass; experiment: Test B pre/postemergence surinam grass; format: in vivo, Brachiaria decumbens
Procedure, shortened: as §1

[7] = tested on: duck salad; experiment: Test B flood test duck salad; format: in vivo, Heteranthera limosa
Procedure, shortened: (§2)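 Flood test on plants grown to the 2-leaf stage; treated plants kept in greenhouse twelve to sixteen days, then visually rated against controls on a 0 (no effect) to 10 (complete control) scale.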

[8] = tested on: giant foxtail; experiment: Test B pre/postemergence giant foxtail; format: in vivo, Setaria faberii
Procedure, shortened: as §1

[9] = tested on: bedstraw; experiment: Test B pre/postemergence bedstraw; format: in vivo, Galium aparine
Procedure, shortened: as §1

[10] = tested on: morningglory; experiment: Test B pre/postemergence morningglory; format: in vivo, Ipomoea hederacea
Procedure, shortened: as §1

[11] = tested on: blackgrass; experiment: Test B pre/postemergence blackgrass; format: in vivo, Alopecurus myosuroides
Procedure, shortened: as §1

[12] = tested on: corn; experiment: Test B pre/postemergence corn; format: in vivo, Zea mays
Procedure, shortened: as §1

[13] = tested on: rice; experiment: Test B flood test rice; format: in vivo, Oryza sativa
Procedure, shortened: as §2

[14] = tested on: smallflower flatsedge; experiment: Test B flood test smallflower flatsedge; format: in vivo, Cyperus difformis
Procedure, shortened: as §2

[15] = tested on: purple nutsedge; experiment: Test B pre/postemergence purple nutsedge; format: in vivo, Cyperus rotundus
Procedure, shortened: as §1

[16] = tested on: soybean; experiment: Test B pre/postemergence soybean; format: in vivo, Glycine max
Procedure, shortened: as §1

[17] = Postemergence, Rate 62 g/ha, scale 0 to 10, 0 is no effect, 10 is complete control
[18] = Postemergence, Rate 250 g/ha, scale 0 to 10, 0 no effect, 10 complete control
[19] = Preemergence, Rate 31 g/ha, visual rating, scale 0 to 10 (0 no effect, 10 complete control)
[20] = Preemergence, Rate 62 g/ha, scale 0 to 10, 0 is no effect, 10 is complete control
[21] = Preemergence, Rate 125 g/ha, scale 0 to 10 (0 no effect, 10 complete control)
[22] = Preemergence, Rate 250 g/ha, scale of 0 to 10 where 0 is no effect and 10 is complete control
[23] = Rate 31 g/ha, Postemergence, scale 0 to 10
[24] = Rate 125 g/ha, Postemergence, scale 0 to 10, 0 no effect, 10 complete control
[25] = Rate 125 g/ha, Postemergence section (flood test species), scale 0 to 10, 0 no effect, 10 complete control
[26] = Rate 500 g/ha, Postemergence section of Table B, 0 to 10 scale (0 no effect, 10 complete control)
[27] = flood test, listed under Postemergence, Rate 250 g/ha, scale 0 to 10, 0 no effect, 10 complete control

Compound: COc1ccccc1-n1c(=O)on(C(=O)N(c2ccc(F)cc2F)C(C)C)c1=O [Compound 31]
- Crabgrass plant response rating [1, 17]: 0
- Crabgrass plant response rating [1, 18]: 9
- Crabgrass plant response rating [1, 19]: 2
- Plant response rating, Crabgrass [1, 20]: 9
- Plant response rating, Crabgrass [1, 21]: 9
- Plant response rating, Crabgrass [1, 22]: 9
- Crabgrass plant response rating [1, 23]: 0
- Crabgrass plant response rating [1, 24]: 2
- Redroot pigweed plant response rating [2, 17]: 0
- Redroot pigweed plant response rating [2, 18]: 0
- Redroot pigweed plant response rating [2, 19]: 0
- Plant response rating, Redroot pigweed [2, 20]: 0
- Plant response rating, Redroot pigweed [2, 21]: 0
- Plant response rating, Redroot pigweed [2, 22]: 3
- Redroot pigweed plant response rating [2, 23]: 0
- Redroot pigweed plant response rating [2, 24]: 0
- Sugarbeets plant response rating [3, 17]: 0
- Sugarbeets plant response rating [3, 18]: 0
- Sugarbeets plant response rating [3, 19]: 0
- Plant response rating, Sugarbeets [3, 20]: 0
- Plant response rating, Sugarbeets [3, 21]: 0
- Plant response rating, Sugarbeets [3, 22]: 0
- Sugarbeets plant response rating [3, 24]: 0
- Wild oats plant response rating [4, 17]: 0
- Wild oats plant response rating [4, 18]: 0
- Wild oats plant response rating [4, 19]: 0
- Plant response rating, Wild oats [4, 21]: 2
- Plant response rating, Wild oats [4, 22]: 4
- Wild oats plant response rating [4, 24]: 0
- Cocklebur plant response rating [5, 17]: 0
- Cocklebur plant response rating [5, 18]: 1
- Cocklebur plant response rating [5, 19]: 0
- Plant response rating, Cocklebur [5, 20]: 0
- Plant response rating, Cocklebur [5, 21]: 0
- Plant response rating, Cocklebur [5, 22]: 0
- Cocklebur plant response rating [5, 23]: 0
- Cocklebur plant response rating [5, 24]: 0
- B. signalgrass plant response rating [6, 17]: 0
- B. signalgrass plant response rating [6, 18]: 0
- B. signalgrass plant response rating [6, 19]: 0
- Plant response rating, B. signalgrass [6, 20]: 0
- Plant response rating, B. signalgrass [6, 21]: 0
- Plant response rating, B. signalgrass [6, 22]: 6
- B. signalgrass plant response rating [6, 23]: 0
- B. signalgrass plant response rating [6, 24]: 0
- Ducksalad plant response rating [7, 17]: 0
- Ducksalad plant response rating [7, 25]: 0
- Ducksalad plant response rating [7, 26]: 0
- Ducksalad plant response rating [7, 27]: 0
- Giant foxtail plant response rating [8, 17]: 0
- Giant foxtail plant response rating [8, 18]: 4
- Giant foxtail plant response rating [8, 19]: 1
- Plant response rating, Giant foxtail [8, 20]: 6
- Plant response rating, Giant foxtail [8, 21]: 8
- Plant response rating, Giant foxtail [8, 22]: 8
- Giant foxtail plant response rating [8, 23]: 0
- Giant foxtail plant response rating [8, 24]: 0
- Bedstraw plant response rating [9, 17]: 0
- Bedstraw plant response rating [9, 18]: 0
- Bedstraw plant response rating [9, 19]: 0
- Plant response rating, Bedstraw [9, 20]: 0
- Plant response rating, Bedstraw [9, 21]: 0
- Plant response rating, Bedstraw [9, 22]: 0
- Bedstraw plant response rating [9, 23]: 0
- Bedstraw plant response rating [9, 24]: 0
- Morningglory plant response rating [10, 17]: 0
- Morningglory plant response rating [10, 18]: 3
- Morningglory plant response rating [10, 19]: 0
- Plant response rating, Morningglory [10, 20]: 0
- Plant response rating, Morningglory [10, 21]: 0
- Plant response rating, Morningglory [10, 22]: 0
- Morningglory plant response rating [10, 23]: 0
- Morningglory plant response rating [10, 24]: 1
- Blackgrass plant response rating [11, 17]: 0
- Blackgrass plant response rating [11, 18]: 9
- Blackgrass plant response rating [11, 19]: 0
- Plant response rating, Blackgrass [11, 20]: 0
- Plant response rating, Blackgrass [11, 21]: 2
- Plant response rating, Blackgrass [11, 22]: 2
- Blackgrass plant response rating [11, 23]: 0
- Blackgrass plant response rating [11, 24]: 4
- Corn plant response rating [12, 17]: 0
- Corn plant response rating [12, 18]: 0
- Corn plant response rating [12, 19]: 0
- Plant response rating, Corn [12, 20]: 0
- Plant response rating, Corn [12, 21]: 0
- Plant response rating, Corn [12, 22]: 0
- Corn plant response rating [12, 23]: 0
- Corn plant response rating [12, 24]: 0
- Rice plant response rating [13, 17]: 0
- Rice plant response rating [13, 25]: 0
- Rice plant response rating [13, 26]: 0
- Rice plant response rating [13, 27]: 0
- S. Flatsedge plant response rating [14, 17]: 0
- S. Flatsedge plant response rating [14, 25]: 0
- S. Flatsedge plant response rating [14, 27]: 0
- Nutsedge plant response rating [15, 17]: 0
- Nutsedge plant response rating [15, 18]: 0
- Nutsedge plant response rating [15, 19]: 0
- Plant response rating, Nutsedge [15, 20]: 0
- Plant response rating, Nutsedge [15, 21]: 0
- Plant response rating, Nutsedge [15, 22]: 0
- Nutsedge plant response rating [15, 23]: 0
- Nutsedge plant response rating [15, 24]: 0
- Soybean plant response rating [16, 17]: 1
- Soybean plant response rating [16, 18]: 1
- Soybean plant response rating [16, 19]: 0
- Plant response rating, Soybean [16, 20]: 0
- Plant response rating, Soybean [16, 21]: 0
- Plant response rating, Soybean [16, 22]: 0
- Soybean plant response rating [16, 24]: 1
